{"source": "patent US7033593B2", "about": "“Immunogen comprising an HIV envelope protein, a ligand and H2 peptide” (priority 2000, dated 2006)", "key": {"sCD4": {"biological_target": "T1, sCD4 (Homo sapiens, UniProt P01730)", "T1 construct": "Soluble CD4 (sCD4) was produced by Progenics, Tarrytown, N.Y; purchased Progenics (provided by the Division of AIDS, NIAID, NIH)", "assay_type": "binding", "conditions": "SPR"}, "A32-gp120 (89.6 gp120)": {"biological_target": "A32-gp120 (89.6 gp120) (Human immunodeficiency virus type 1 group M subtype B, UniProt Q73372)", "conditions": "DP178 pre-incubated with peptide", "text": "FIGS. 31A–31F. […] Data are representative of 3 separate experiments performed. Data presented for C4-V389.6P and C4-V3MN are taken from two separate experiments. (FIG. 31F) Schematic.\nThe gp120 C4 region is centrally located within the CCR5 binding site in the β20–β21 strands of the gp120 bridging sheet (Wyatt et al, J. Virol. 69:5723–5733 (1995))."}, "[1]": {"tested_on": "HIV-1 induced syncytia formation", "assay": "HIV-1 induced syncytia formation", "assay_type": "cell-based", "conditions": "50–200 μg/ml"}, "[2]": {"tested_on": "CD4-gp140 complex (89.6 gp140 oligomers)", "conditions": "on CD4-gp140 complex", "experimental": "FIG. 10C. CD4-gp140 complexes (indicated by arrow) were first formed by injecting soluble 89.6 gp140 oligomers over a CD4-immobilized surface. Then the CCR5 N-terminal peptide (D1) was injected to monitor its binding to CD4-gp140 complexes.\nFIG. 10D. An overlay of the binding curves of CCR5 N-terminal peptide, D1, binding to 89.6 gp140 oligomers in the presence and absence of CD4. […] To ensure that all gp140 molecules were bound to CD4, cleaved gp140 proteins were captured on a CD4 immobilized sensor surface (RU=530), and soluble 89.6 gp140 proteins were directly immobilized (RU=3300) on an adjacent flow cell of the same sensor chip.\n(§1) SPR biosensor measurements were determined on a BIACORE 3000 (BIACORE Inc., Uppsala, Sweden) instrument. […] Binding of proteins and peptides was monitored in real-time at 25° C. and with a continuous flow of PBS, pH 7.4 at […]. Analyte (proteins and peptides) were removed and the sensor surfaces were regenerated following each cycle of binding by single or duplicate […] of regeneration solution (10 mM glycine-HCl, pH 2.5 or 10 mM NaOH).\n(§2) All analyses were performed using the non-linear fit method of O'Shannessy et al. (O'Shannessy et al, Anal. Biochem. 205:132–136 (1992)) and the BIAevaluation 3.0 software (BIACORE Inc). Rate and equilibrium constants were derived from curve fitting to the Langmuir equation for a simple bimolecular interaction (A+B=AB)."}, "[3]": {"biological_target": "cleaved gp140 oligomers (HIV 89.6) (Human immunodeficiency virus type 1 group M subtype B, UniProt Q73372)", "sequence (Q73372 32-681)": "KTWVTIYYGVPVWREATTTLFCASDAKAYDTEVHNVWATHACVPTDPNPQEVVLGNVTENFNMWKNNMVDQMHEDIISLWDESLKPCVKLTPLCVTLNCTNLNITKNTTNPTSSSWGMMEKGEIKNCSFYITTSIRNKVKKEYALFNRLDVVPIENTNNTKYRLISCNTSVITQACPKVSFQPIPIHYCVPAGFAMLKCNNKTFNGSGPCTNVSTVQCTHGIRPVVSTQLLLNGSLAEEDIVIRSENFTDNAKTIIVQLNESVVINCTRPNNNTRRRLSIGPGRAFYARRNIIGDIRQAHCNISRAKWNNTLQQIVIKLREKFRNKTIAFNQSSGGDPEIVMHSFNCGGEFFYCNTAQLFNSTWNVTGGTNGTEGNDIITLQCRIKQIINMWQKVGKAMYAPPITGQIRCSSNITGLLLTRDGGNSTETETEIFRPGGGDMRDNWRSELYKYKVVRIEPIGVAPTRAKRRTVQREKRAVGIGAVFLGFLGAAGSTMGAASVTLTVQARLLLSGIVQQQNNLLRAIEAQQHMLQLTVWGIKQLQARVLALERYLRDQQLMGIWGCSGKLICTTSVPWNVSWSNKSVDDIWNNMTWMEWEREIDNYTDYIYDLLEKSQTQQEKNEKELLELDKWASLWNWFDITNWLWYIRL", "assay": "biochemical", "assay_type": "binding"}, "HIV-1 Env 89.6 gp120": {"biological_target": "HIV-1 Env 89.6 gp120 (Human immunodeficiency virus type 1 group M subtype B, UniProt Q73372)", "sequence (Q73372 32-508)": "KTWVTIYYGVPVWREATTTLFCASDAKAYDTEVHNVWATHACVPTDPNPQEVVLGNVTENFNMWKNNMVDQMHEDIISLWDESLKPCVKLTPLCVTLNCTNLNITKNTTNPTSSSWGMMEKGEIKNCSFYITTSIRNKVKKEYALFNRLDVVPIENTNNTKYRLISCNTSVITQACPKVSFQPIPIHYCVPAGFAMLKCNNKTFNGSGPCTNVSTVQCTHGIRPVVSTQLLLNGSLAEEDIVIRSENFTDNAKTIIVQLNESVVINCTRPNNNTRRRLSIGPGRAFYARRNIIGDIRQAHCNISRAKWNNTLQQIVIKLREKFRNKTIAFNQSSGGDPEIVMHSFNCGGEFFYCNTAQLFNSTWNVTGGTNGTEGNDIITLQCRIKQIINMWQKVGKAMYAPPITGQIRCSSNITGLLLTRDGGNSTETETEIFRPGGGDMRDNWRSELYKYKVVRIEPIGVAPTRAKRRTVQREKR", "assay": "biochemical", "assay_type": "binding, HIV-1 89.6"}, "[4]": {"tested_on": "sCD4-gp140 (HIV 89.6 gp140)", "assay": "SPR binding of HR-2 peptides to sCD4-gp140 complex", "conditions": "SPR", "experimental": "as §1, §2\n(§3) A blank chip served as an in-line reference surface for subtraction of non-specific binding and bulk responses.\n(§4) Surface Plasmon Resonance Biosensor Measurements. SPR biosensor measurements were determined on a BIACORE 3000 (BIACORE Inc., Uppsala, Sweden) instrument. […] A blank in-line reference surface (activated and de-activated for amine coupling) was used to subtract non-specific or bulk responses. Binding of proteins and peptides (biotinylated or free DP178, T649Q26L, DP178-scrambled) was monitored in real-time at 25° C. with a continuous flow of PBS (150 mM NaCl, 0.005% surfactant p20), pH 7.4 at 10–30 μl/min. Analyte (proteins and peptides) were removed and the sensor surfaces were regenerated following each cycle of binding by single or duplicate 5–10 μl pulses of regeneration solution (10 mM glycine-HCl, pH 2.5 or 10 mM NaOH)."}, "[5]": {"biological_target": "sCD4-gp120 (HIV 89.6 gp120) (Human immunodeficiency virus type 1 group M subtype B, UniProt Q73372)", "sequence (Q73372 32-508)": "as above", "assay_type": "binding"}, "[6]": {"tested_on": "T8-gp140 (HIV 89.6 gp140)", "sequence (Q73372 32-508)": "as above", "sequence (Q73372 509-680)": "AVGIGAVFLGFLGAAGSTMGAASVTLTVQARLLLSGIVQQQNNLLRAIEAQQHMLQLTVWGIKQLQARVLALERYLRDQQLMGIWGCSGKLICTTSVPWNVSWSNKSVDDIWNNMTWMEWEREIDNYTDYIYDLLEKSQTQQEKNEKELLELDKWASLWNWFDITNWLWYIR", "conditions": "SPR", "experimental": "FIG. 14A. […] FIGS. 14B and 14C. […] After stabilization of gp140 capture, either the 19b (anti-gp120 V3) or 2F5 (anti-gp41) antibodies (300 μg/ml) were injected to assess the relative amounts of gp120 and gp41 on both surfaces. FIGS. 14D–14F.\nas §3, §4"}, "[7]": {"biological_target": "T8-gp120 (HIV 89.6 gp120) (Human immunodeficiency virus type 1 group M subtype B, UniProt Q73372)", "sequence (Q73372 32-508)": "as the sequence (Q73372 32-508) above", "assay_type": "binding", "conditions": "SPR"}, "[8]": {"biological_target": "sCD4 ligated gp120 in the context of membrane bound envelope", "conditions": "Hoffman et al 2000; read-out: affinity; cited from earlier work"}}, "note": "“Also recorded” adds a separate entry of the source. Read-outs that look alike come from different tables or passages of the source. No end group written: not given here.", "data": [{"substance": "89.6 gp120: soluble gp120 envelope protein of HIV 89.6 primary isolate (Clade B)", "values": [{"measurement": "off-rate (kd)", "setting": "sCD4; immobilized CD4", "result": 0.00011, "unit": "s⁻¹"}, {"measurement": "off-rate", "setting": "sCD4; immobilized sCD4, preliminary studies", "result": "1.1×10^−4 s^1"}, {"measurement": "binding to sCD4 (in words)", "setting": "sCD4; listed as HIV 89.6 gp120", "result": "most stable binding to sCD4"}, {"measurement": "binding to sCD4 (in words)", "setting": "sCD4; listed as HIV89.6 gp120", "result": "bound sCD4 most avidly"}]}, {"substance": "89.6 gp140: HIV 89.6 gp140 envelope, about 50:50 cleaved and uncleaved", "values": [{"measurement": "binding to sCD4 (in words)", "setting": "sCD4", "result": "bound sCD4 well"}]}, {"substance": "IKQIINMWQKVGKAMYAPPIS [C4]", "values": [{"measurement": "mean % blocking of DP178 binding to 89.6 gp120", "setting": "A32-gp120 (89.6 gp120); n=3", "result": 27, "unit": "%"}, {"measurement": "effect on DP178 inhibition of syncytia formation (in words)", "setting": "[1]", "result": "can reverse DP178 inhibition"}]}, {"substance": "KQIINMWQEVGKAMYACTRPNYNKRKRIHIGPGRAFYTTK [C4-V3MN]", "values": [{"measurement": "blocking of DP178 binding (in words)", "setting": "A32-gp120 (89.6 gp120)", "result": "strong blocking"}]}, {"substance": "KQIINMWQEVGKAMYATRPNNNTRERLSIGPGRAFYARR [C4-V389.6]", "values": [{"measurement": "blocking of DP178 binding (in words)", "setting": "A32-gp120 (89.6 gp120)", "result": "strong blocking"}]}, {"substance": "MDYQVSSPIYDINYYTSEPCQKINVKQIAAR [CCR5-D1]", "values": [{"measurement": "ka", "setting": "[2]", "result": 9000, "unit": "M⁻¹ s⁻¹"}, {"measurement": "kd", "setting": "[2]", "result": 0.00256, "unit": "s⁻¹"}, {"measurement": "Kd", "setting": "[2]; read-out: apparent Kd", "result": 280, "unit": "nM"}, {"measurement": "Kd", "setting": "[3]", "result": 1000, "unit": "nM"}, {"measurement": "binding to cleaved gp140 (in words)", "setting": "[3]; absence of CD4", "result": "Low levels of constitutive binding"}, {"measurement": "kd (off-rate)", "setting": "[3]; absence of CD4", "result": 0.01, "unit": "s⁻¹"}]}, {"substance": "NNLLRAIEAQQHLLQLTVWGIKQLQARILAVERYLKDQ [DP107]", "values": [{"measurement": "binding to gp120 bound to CD4 or A32 (in words)", "setting": "HIV-1 Env 89.6 gp120", "result": "no binding was observed"}]}, {"substance": "TRPNNNTRERLSIGPGRAFYARR [V3]", "values": [{"measurement": "blocking of DP178 binding (in words)", "setting": "A32-gp120 (89.6 gp120)", "result": "no significant blocking"}]}, {"substance": "WMEWDREINNYTSLIHSLIEESQNQLEKNEQELLEL [T649Q26L]", "values": [{"measurement": "binding to sCD4-gp140 surface (in words)", "setting": "[4]", "result": "much higher binding; also recorded: marked binding"}, {"measurement": "binding to sCD4-gp120 (in words)", "setting": "[5]", "result": "specifically induced by sCD4"}, {"measurement": "binding to T8-gp140 surface (in words)", "setting": "[6]", "result": "no binding"}, {"measurement": "binding to gp120 on T8 mab surface (in words)", "setting": "[7]", "result": "neither HR-2 peptide bound"}]}, {"substance": "native CCR5: native CCR5 co-receptor, literature value", "values": [{"measurement": "Kd", "setting": "[8]", "result": 500000, "unit": "nM"}]}]}
